Measurements from US8362017B2, “C-kit modulators and methods of use” (Exelixis, Inc., priority 2003, dated 2013).

Target: c-Kit kinase (Homo sapiens, UniProt P10721)
Test: c-Kit biochemical activity assay (AlphaScreen)
Settings: biotinylated poly(Glu, Tyr) substrate, 1 hr at ambient temperature
Protocol: Kinase activity and compound inhibition are investigated using one or more of the three assay formats described below. The ATP concentrations for each assay are selected to be close to the Michaelis-Menten constant (KM) for each individual kinase. Dose-response experiments are performed at 10 different inhibitor concentrations in a 384-well plate format. The data are fitted to four-parameter equation (2) below; where Y is the observed signal, X is the inhibitor concentration, Min is the background signal in the absence of enzyme (0% enzyme activity), Max is the signal in the absence of inhibitor (100% enzyme activity), IC50 is the inhibitor concentration at 50% enzyme inhibition and H represents the empirical Hill's slope to measure the cooperativity. Typically H is close to unity. Y=Min+(Max−Min)/(1+(X/IC50)^H) Equation (2) c-Kit Assay
c-Kit biochemical activity was assessed using AlphaScreen™ (Perldn Elmer) technology, described above. Test compounds, ATP, biotinylated poly(Glu, Tyr) and c-Kit kinase were combined in a volume of 20 μL in a 384-well white, medium binding microtiter plate (Greiner). Reaction mixtures were incubated for 1 hr at ambient temperature. Reactions were quenched by addition of 10 μL of 15-30 mg/mL AlphaScreen bead suspension containing 75 mM Hepes, pH 7.4, 300 mM NaCl, 120 mM EDTA, 0.3% BSA and 0.03% Tween-20. After 16 hr incubation at ambient temperature plates were read using an AlphaQuest reader (Perkin Elmer).

c-Kit kinase, sequence (P10721 26-976): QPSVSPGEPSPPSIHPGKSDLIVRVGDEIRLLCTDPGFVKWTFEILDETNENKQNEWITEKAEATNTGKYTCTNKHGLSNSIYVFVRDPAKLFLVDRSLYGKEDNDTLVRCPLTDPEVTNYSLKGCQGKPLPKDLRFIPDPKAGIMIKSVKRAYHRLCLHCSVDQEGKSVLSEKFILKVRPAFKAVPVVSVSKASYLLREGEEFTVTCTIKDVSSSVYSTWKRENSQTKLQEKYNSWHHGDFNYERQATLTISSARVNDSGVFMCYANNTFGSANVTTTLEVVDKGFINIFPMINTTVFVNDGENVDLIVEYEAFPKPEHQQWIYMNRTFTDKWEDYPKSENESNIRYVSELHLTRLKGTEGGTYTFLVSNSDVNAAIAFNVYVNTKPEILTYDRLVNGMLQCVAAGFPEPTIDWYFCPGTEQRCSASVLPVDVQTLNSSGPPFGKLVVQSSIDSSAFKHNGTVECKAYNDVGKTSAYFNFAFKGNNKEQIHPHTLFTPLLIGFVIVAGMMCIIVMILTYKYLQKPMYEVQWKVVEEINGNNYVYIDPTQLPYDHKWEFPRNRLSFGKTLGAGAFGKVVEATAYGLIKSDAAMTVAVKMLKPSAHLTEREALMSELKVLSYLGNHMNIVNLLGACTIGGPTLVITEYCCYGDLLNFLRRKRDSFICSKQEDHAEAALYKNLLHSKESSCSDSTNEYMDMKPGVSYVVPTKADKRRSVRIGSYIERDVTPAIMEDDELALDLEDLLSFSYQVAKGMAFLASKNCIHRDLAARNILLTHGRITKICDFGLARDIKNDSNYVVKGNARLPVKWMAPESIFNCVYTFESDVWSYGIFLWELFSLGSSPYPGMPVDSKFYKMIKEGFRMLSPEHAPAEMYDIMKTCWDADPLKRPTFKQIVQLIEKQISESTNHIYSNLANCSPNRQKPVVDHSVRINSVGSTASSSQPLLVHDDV

Row | SMILES | IC50 [nM]
1 | Cc1ccc(NC(=O)OCc2cccc(-c3cccnc3)c2)cc1C [Example 238, (3-pyridin-3-ylphenyl)methyl (3,4-dimethylphenyl)carbamate] | 50 to 500
2 | O=C(NCc1cccc(-c2cccnc2F)c1)Nc1ccc(Cl)c(C(F)(F)F)c1 [Example 253, N-[4-chloro-3-(trifluoromethyl)phenyl]-N′-{[3-(2-fluoropyridin-3-yl)phenyl]methyl}urea] | 500 to 5000
3 | O=C(Nc1ccc(Cl)c(C(F)(F)F)c1)OCc1cccc(-c2cnc(N3CCNCC3)nc2)c1 [Example 249, [3-(2-piperazin-1-ylpyrimidin-5-yl)phenyl]methyl [4-chloro-3-(trifluoromethyl)phenyl]carbamate] | 500 to 5000

More lines, now with the values ahead:

Row | IC50 [nM] | SMILES
4 | 500 to 5000 | O=C(Nc1ccc(Cl)c(C(F)(F)F)c1)OCc1cccc(-c2cccnc2)n1 [Example 261, 2,3′-bipyridin-6-ylmethyl [4-chloro-3-(trifluoromethyl)phenyl]carbamate]
5 | 50 to 500 | O=C(Nc1cccc(C(F)(F)F)c1)OCc1cccc(-n2cnnn2)c1 [Example 255, [3-(1H-tetrazol-1-yl)phenyl]methyl [3-(trifluoromethyl)phenyl]carbamate]
6 | 50 to 500 | COc1cncc(-c2cccc(COC(=O)Nc3ccc(Cl)c(C(F)(F)F)c3)c2)c1 [Example 260, {3-[5-(methyloxy)pyridin-3-yl]phenyl}methyl [4-chloro-3-(trifluoromethyl)phenyl]carbamate]
7 | < 50 | O=C(Nc1ccc(Cl)c(C(F)(F)F)c1)OCc1cccc(-c2cn[nH]c2)c1 [Example 266, [3-(1H-pyrazol-4-yl)phenyl]methyl [4-chloro-3-(trifluoromethyl)phenyl]carbamate]
